Results from PubChem BioAssay AID330 (DTP/NCI, 2004).
Where “and” joins values, the source holds several entries; their conditions need not be identical. Equal entries are not always repeated. Inconclusive results and toxic doses are left out. The calls were made as follows: active = survival T/C of 150% or more; inactive = T/C below 125% in these data.

System: P388 leukemia ip, CD2F1 mice, survival T/C
Test: NCI In Vivo Anticancer Drug Screen. Data for tumor model P388 Leukemia (intraperitoneal) in CD2F1 (CDF1) mice
Details: endpoint: median survival time, higher = longer survival
Method in brief: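 Mice carrying the transplanted tumor received test compound or vehicle. Survival was recorded in each group, and the value is the treated-group measurement divided by that of the vehicle-treated control group.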

[1] = dose: 50.0 mg/kg/injection, schedule: Q04DX002 (ip), vehicle: saline with Tween-80
[2] = dose: 100.0 mg/kg/injection, schedule: Q04DX002 (ip), vehicle: saline with Tween-80
[3] = dose: 60.0 mg/kg/injection, schedule: Q01DX005 (ip), vehicle: saline
[4] = dose: 120.0 mg/kg/injection, schedule: Q01DX005 (ip), vehicle: saline
[5] = dose: 240.0 mg/kg/injection, schedule: Q01DX005 (ip), vehicle: saline
[6] = dose: 25.0 mg/kg/injection, schedule: Q01DX009 (ip), vehicle: saline with Tween-80
[7] = dose: 100.0 mg/kg/injection, schedule: Q01DX009 (ip), vehicle: saline with Tween-80
[8] = dose: 200.0 mg/kg/injection, schedule: Q01DX009 (ip), vehicle: saline with Tween-80
[9] = dose: 50.0 mg/kg/injection, schedule: Q01DX009 (ip), vehicle: saline with Tween-80
[10] = dose: 50.0 mg/kg/injection, schedule: Q01DX005 (ip), vehicle: Klucel (hydroxypropylcellulose) (HPC)
[11] = dose: 100.0 mg/kg/injection, schedule: Q01DX005 (ip), vehicle: Klucel (hydroxypropylcellulose) (HPC)
[12] = dose: 200.0 mg/kg/injection, schedule: Q01DX005 (ip), vehicle: Klucel (hydroxypropylcellulose) (HPC)
[13] = dose: 50.0 mg/kg/injection, schedule: Q01DX005 (ip), vehicle: saline
[14] = dose: 60.0 mg/kg/injection, schedule: Q01DX005 (ip), vehicle: saline with Tween-80
[15] = dose: 100.0 mg/kg/injection, schedule: Q01DX005 (ip), vehicle: saline
[16] = dose: 120.0 mg/kg/injection, schedule: Q01DX005 (ip), vehicle: saline with Tween-80
[17] = dose: 240.0 mg/kg/injection, schedule: Q01DX005 (ip), vehicle: saline with Tween-80
[18] = dose: 50.0 mg/kg/injection, schedule: Q01DX009 (ip), vehicle: saline

Measured: T/C

N#Cc1c(-c2ccccc2)nc2sccn12
inactive: dose: 100.0 mg/kg/injection, schedule: Q01DX001 (ip), vehicle: Klucel (hydroxypropylcellulose) (HPC) 88 % of control | dose: 400.0 mg/kg/injection, schedule: Q01DX001 (ip), vehicle: Klucel (hydroxypropylcellulose) (HPC) 91 % of control

Cc1nc2ccc(NC(=O)NC(=O)c3c(F)cccc3F)cc2s1
inactive: [1] 92 % of control | [2] 92 % of control | dose: 200.0 mg/kg/injection, schedule: Q04DX002 (ip), vehicle: saline with Tween-80 89 % of control

Cn1c(=O)cc(NC2OC(CO)C(O)C(O)C2O)[nH]c1=O (centres undefined)
inactive: [3] 97 % of control | [4] 97 % of control | [5] 99 % of control

CSC(=S)NN=C(c1ccccn1)c1ccccn1
inactive: dose: 6.25 mg/kg/injection, schedule: Q01DX009 (ip), vehicle: saline with Tween-80 96 % of control | dose: 12.5 mg/kg/injection, schedule: Q01DX009 (ip), vehicle: saline with Tween-80 99 % of control | [6] 92 % of control | [7] 91 % of control | [8] 88 % of control

COc1cc(/C=C(\C#N)C(N)=O)cc(Br)c1O
inactive: dose: 50.0 mg/kg/injection, schedule: Q01DX005 (ip), vehicle: saline with Tween-80 100 % of control | dose: 100.0 mg/kg/injection, schedule: Q01DX005 (ip), vehicle: saline with Tween-80 103 % of control | dose: 200.0 mg/kg/injection, schedule: Q01DX005 (ip), vehicle: saline with Tween-80 100 % of control

OC1CC2CC1CC2c1cnc[nH]1 (centres undefined)
inactive: dose: 12.5 mg/kg/injection, schedule: Q04DX002 (ip), vehicle: saline with Tween-80 100 % of control | dose: 25.0 mg/kg/injection, schedule: Q04DX002 (ip), vehicle: saline with Tween-80 100 % of control | [1] 100 % of control | [2] 100 % of control

Cc1ccc(S(=O)(=O)OI(C#Cc2ccccc2)c2ccccc2)cc1
inactive: dose: 77.5 mg/kg/injection, schedule: Q04DX002 (ip), vehicle: Klucel (hydroxypropylcellulose) (HPC) 99 % of control | dose: 155.0 mg/kg/injection, schedule: Q04DX002 (ip), vehicle: Klucel (hydroxypropylcellulose) (HPC) 89 % of control | dose: 310.0 mg/kg/injection, schedule: Q04DX002 (ip), vehicle: Klucel (hydroxypropylcellulose) (HPC) 99 % of control

O=C1/C(=C/c2ccccc2)CCCC12C(c1ccccc1)N2Cc1ccccc1 (centres undefined)
inactive: dose: 60.0 mg/kg/injection, schedule: Q01DX005 (ip), vehicle: Klucel (hydroxypropylcellulose) (HPC) 91 % of control | dose: 120.0 mg/kg/injection, schedule: Q01DX005 (ip), vehicle: Klucel (hydroxypropylcellulose) (HPC) 90 % of control | dose: 240.0 mg/kg/injection, schedule: Q01DX005 (ip), vehicle: Klucel (hydroxypropylcellulose) (HPC) 88 % of control

COc1cc(O)c(Cc2ccccc2O)c(O)c1C(=O)CCc1ccccc1
inactive: dose: 1.25 mg/kg/injection, schedule: Q01DX009 (ip), vehicle: saline with Tween-80 100 % of control | dose: 1.25 mg/kg/injection, schedule: Q01DX009 (ip), vehicle: saline 104 % of control | dose: 2.5 mg/kg/injection, schedule: Q01DX009 (ip), vehicle: saline with Tween-80 105 % of control | dose: 2.5 mg/kg/injection, schedule: Q01DX009 (ip), vehicle: saline 104 % of control | dose: 5.0 mg/kg/injection, schedule: Q01DX009 (ip), vehicle: saline with Tween-80 111 % of control | dose: 5.0 mg/kg/injection, schedule: Q01DX009 (ip), vehicle: saline 104 % of control | dose: 10.0 mg/kg/injection, schedule: Q01DX009 (ip), vehicle: saline 104 % of control | dose: 20.0 mg/kg/injection, schedule: Q01DX009 (ip), vehicle: saline 101 % of control

NNC(=O)c1ccccc1
inactive: [6] 104 % of control | [9] 113 % of control | dose: 50.0 mg/kg/injection, schedule: Q04DX003 (ip), vehicle: saline with Tween-80 95 % of control | dose: 100.0 mg/kg/injection, schedule: Q04DX003 (ip), vehicle: saline with Tween-80 100 % of control

Cc1ccc(S(=O)(=O)/N=C2\CCN(S(=O)(=O)c3ccccc3)N2S(=O)(=O)c2ccc(C)cc2)cc1
inactive: [10] 99 % of control | [11] 90 % of control | [12] 94 % of control

O=C1NC(=O)C2C3CCC(O3)C12 (centres undefined)
inactive: [13] 106 % of control and 99 % of control | [14] 94 % of control | [3] 101 % of control | [15] 106 % of control and 98 % of control | [16] 100 % of control | [4] 102 % of control | [17] 106 % of control | [5] 92 % of control

C[N+](C)(C)c1ccc2c(c1)CCC/C2=N\N
inactive: dose: 1.56 mg/kg/injection, schedule: Q04DX003 (ip), vehicle: saline 100 % of control | dose: 3.13 mg/kg/injection, schedule: Q04DX003 (ip), vehicle: saline 100 % of control | dose: 6.25 mg/kg/injection, schedule: Q04DX003 (ip), vehicle: saline 97 % of control

O=S1(=O)N=C(c2ccccc2)CC(c2ccccc2)N1 (centres undefined)
inactive: [9] 100 % of control | [7] 90 % of control | [8] 90 % of control

BrC[Si](CBr)(c1ccccc1)c1ccccc1
inactive: dose: 12.5 mg/kg/injection, schedule: Q01DX009 (ip), vehicle: saline 106 % of control | dose: 25.0 mg/kg/injection, schedule: Q01DX009 (ip), vehicle: saline 106 % of control | [18] 99 % of control and 92 % of control

O=c1c2c(c(=O)c(=O)c1=O)Nc1ccccc1N2
inactive: [14] 100 % of control | [16] 101 % of control | [17] 107 % of control

Nc1nc(N)c(NS(=O)(=O)c2ccccc2)c(=O)[nH]1
inactive: [14] 108 % of control | [16] 100 % of control | [17] 105 % of control

O=C(Cc1ccccc1)c1ccc(F)cc1
inactive: dose: 50.0 mg/kg/injection, schedule: Q01DX009 (ip), vehicle: Klucel (hydroxypropylcellulose) (HPC) 98 % of control | dose: 100.0 mg/kg/injection, schedule: Q01DX009 (ip), vehicle: Klucel (hydroxypropylcellulose) (HPC) 100 % of control | dose: 200.0 mg/kg/injection, schedule: Q01DX009 (ip), vehicle: Klucel (hydroxypropylcellulose) (HPC) 99 % of control

Cc1cccc([NH-])n1.Cc1cccc([NH-])n1.Cc1cccc([NH-])n1.Cc1cccc([NH-])n1.[Cl][Rh][Cl]
inactive: dose: 6.25 mg/kg/injection, schedule: Q01DX009 (ip), vehicle: DMSO 101 % of control | dose: 12.5 mg/kg/injection, schedule: Q01DX009 (ip), vehicle: DMSO 99 % of control | dose: 25.0 mg/kg/injection, schedule: Q01DX009 (ip), vehicle: DMSO 101 % of control | [18] 101 % of control

Oc1ccccc1C1=CC=NCCN1
inactive: dose: 15.0 mg/kg/injection, schedule: Q01DX005 (ip), vehicle: saline with Tween-80 96 % of control | dose: 30.0 mg/kg/injection, schedule: Q01DX005 (ip), vehicle: saline with Tween-80 101 % of control | [14] 101 % of control

O=C1CC(=O)N(CN2C(=O)CC(=O)NC2=S)C(=S)N1
inactive: [10] 100 % of control | [11] 103 % of control | [12] 105 % of control

COP(=O)(CC(=O)CCCCCOC1CCCCO1)OC (centres undefined)
inactive: [13] 100 % of control | [15] 100 % of control | dose: 200.0 mg/kg/injection, schedule: Q01DX005 (ip), vehicle: saline 99 % of control

O=c1ccn2c(n1)SC(c1ccccc1)C2 (centres undefined)
inactive: [9] 100 % of control | [7] 98 % of control | [8] 100 % of control

COc1ccc([Si](C)(C)CNCCSS(=O)(=O)O)cc1
inactive: [9] 90 % of control | [7] 95 % of control | [8] 90 % of control

C1C[O][Ge]2([O]1)[O]CC[O]2
inactive: [18] 108 % of control | dose: 100.0 mg/kg/injection, schedule: Q01DX009 (ip), vehicle: saline 101 % of control | dose: 200.0 mg/kg/injection, schedule: Q01DX009 (ip), vehicle: saline 102 % of control
